According to patent US20230183750A1, “HDR ENHANCERS” (OXFORD GENETICS LIMITED, priority 2020, published 2023):

Assays:
HEK reporter cell line = assay: cell-viability assay using alamar blue reagent; format: cell-based, human; conditions: 72 hours
Experimental: To investigate the effect of this library on HDR efficiency and to identify novel molecules which would increase the HDR mediated gene editing efficiency, first we carried out a cell-viability assay using the HEK reporter cell line and alamar blue reagent. The experiment was performed to rule out any toxicity associated with the small molecule library. Briefly, 3 different concentration of inhibitors (0.1 μM, 1 μM and 10 μM) were added in the cells in a 96 well plate format and plates were incubated for 72 hours. After 72 hours, the media were replaced with alamar blue containing media and the plates were further incubated for 3 hours and then read on a Fluorstar omega plate reader. The table gives the results obtained with the subsequently-selected inhibitors, together with a range of other potential inhibitors.

[1] = test system: HEK293 reporter cell line; assay: CRISPR/Cas9-based HDR assay (wtCas9 RNP, ssOligo donor, EGFP positive cells by FACS); format: cell-based, human; conditions: for HDR efficiency, single small molecule (FIG. 4): Example 4, first set of experiments, compared to no compound; for HDR efficiency in the initial screen with wtCas9: fold change compared to Cas9 alone, ≥20% increase (fold change ≥1.2) = positive influencer; for optimal concentration selected for further experiments: from the HDR dose dependency experiment; for dose dependency of HDR efficiency (FIG. 3): three concentrations (low, medium, high) per inhibitor; for concentration with the highest HDR efficiency: tested at 5, 10, 20 μM
Experimental: More specifically, an HDR assay using a HEK reporter cell line containing truncated EGFP may be used. These cells may be transfected with a transfection complex containing the CRISPR endonuclease and a donor sequence. Cas9 RNPs may be prepared by following the manufacturers' guidelines. The transfection complex may be prepared by adding Cas9 RNP or Cas9 nickase RNP, along with ssOligo donor and lipofectamine 2000 in Optimem. Reagents should be mixed well and incubated for 20 mins. After 20 mins, 50 μl of transfection complex (at an optimal concentration—see the Examples herein) may be transferred in a 96 well plate and 50 μl HEK293 reporter cell line suspension (9×10^5 cells/ml) added followed by 50 μl of cell culture medium containing appropriate concentration(s) of inhibitor(s). Cells may be incubated at 37° C. in a CO2 incubator for 24 hours and then inhibitor-containing media should be replaced with fresh media without inhibitor. Cells are then further incubated for 48 hours. After 48 hours, cells may be trypsinized and resuspended in PBS containing 10% FBS. Samples may be run on FACS and the percentage of EGFP in the population measured. Presence of EGFP directly correlates with HDR efficiency.
To investigate whether a knock-in truncated in HEK293 reporter cell line could be corrected by homology dependent repair, a CRISPR/Cas9-based HDR assay was used. We used ssODN as a donor template to correct the EGFP sequence and to restore functionality as ssODNs are known to be more efficient compared to the double-stranded donor for HDR based DNA repair. Briefly, cells were transfected with a wtCas9 ribonucleoprotein complex along with an oligo donor for restoring EGFP functionality. Cells were analysed by FACS 72 hours post-transfection (FIGS. 2A and 2B).
To identify the small molecules which would increases the HDR efficiency, we carried out experiments using the engineered HEK293 reporter cell line, ss-donor and wtCas9 in the presence of the inhibitors identified in Example 2. Briefly, in vitro reconstituted wtCas9 RNP with gRNA-X1 was transfected into the cells along with ssOligo donor (50 nM) in presence of the inhibitors. Inhibitor containing media was replaced with fresh media after 24 hours and cells were further incubated for 48 hours. After 48 hours cells were trypsinized and resuspended in 10% FBS containing PBS and analysed by FACS.
To understand whether increase in HDR is related to dose response, we carried out the HDR assay using three different concentrations of selected inhibitors as shown in the table below.
To investigate whether HDR efficiency would increase further by using the top hit small molecule combinations, we performed experiments using small molecule combinations for wtCas9. These combinations were selected using Design of Experiment (DoE) software. These combination experiments were carried out in 2 sets: the first set was performed in the absence of NU7441 (a known HDR enhancer); and the second set was performed in the presence of NU7441. […] In the second set of experiments, in the presence of NU7441, further increases (˜2fold) in HDR efficiency were observed compared to no NU7441 (FIG. 4). […]

Structure (SMILES)	% survival (HEK reporter cell line; 0.1 μM inhibitor)	% survival (HEK reporter cell line; 1 μM inhibitor)	% survival (HEK reporter cell line; 10 μM inhibitor)	HDR efficiency, single small molecule (FIG. 4) ([1]; wtCas9)	HDR efficiency at high concentration (FIG. 3) ([1]; concentration of 0.2 μM, wtCas9)	HDR efficiency in the initial screen with wtCas9 [1]	optimal concentration selected for further experiments ([1]; wtCas9)	further increase in HDR efficiency in the presence of NU7441 compared to no NU7441 (FIG. 4) ([1]; Example 4, second set of experiments, wtCas9)	HDR efficiency at high concentration (FIG. 3) ([1]; concentration of 2 μM, wtCas9)	dose dependency of HDR efficiency (FIG. 3) ([1]; wtCas9)	concentration with the highest HDR efficiency ([1]; wtCas9)
O=C(Nc1c[nH]nc1-c1nc2cc(CN3CCOCC3)ccc2[nH]1)NC1CC1 [AT9283]	81.49 ± 3.59%	69.69 ± 1.2%	7.1 ± 0.06%	increase in HDR efficiency	moderated decreases in HDR efficiency	increase the HDR efficiency	0.05 µM				
Cc1cc(CN2CCN(c3c(Br)cnc4nc(-c5ccc(N6CCN(C)CC6)cc5)[nH]c34)CC2)no1 [CCT137690]	105.48 ± 3.94%	63.37 ± 2.12%	−0.08 ± 0.1%								
O=c1cc(N2CCOCC2)oc2c1ccc1ccccc12 [NU7026]	100.08 ± 4.01%	100.14 ± 4.13%	83.17 ± 1.44%			increase the HDR efficiency					
O=c1cc(N2CCOCC2)oc2c(-c3cccc4c3sc3ccccc34)cccc12 [NU7441]	103.58 ± 4.44%	88.88 ± 3.55%	22.95 ± 0.98%	increase in HDR efficiency		increase the HDR efficiency	1 µM	~2 fold	moderate increases	highest HDR efficiency	
O=C([C@H](Cc1cccc(C(F)(F)F)c1)NS(=O)(=O)c1cc(F)c2c(c1)CCNC2)N1CCCC1 [S-PFI-2]	99.98 ± 3.25%	115.11 ± 2.47%	94.25 ± 8.54%	increase in HDR efficiency		increase the HDR efficiency	20 µM			dose-dependent increases in HDR efficiency	20 µM
O=C1NC(=O)/C(=C/c2cccc(C(F)(F)F)c2)S1 [SMI-4a]	105.2 ± 0.07%	103.18 ± 5.38%	99.85 ± 1.22%	increase in HDR efficiency		increase the HDR efficiency	20 µM			dose-dependent increases in HDR efficiency	20 µM
CCS(=O)(=O)c1cccc(-c2cc(C(=O)NC3CCN(C)CC3)c(C)c3[nH]c4ncc(C)cc4c23)c1 [TAK-901]	88.9 ± 1.18%	36.24 ± 0.88%	5.65 ± 0.08%								
